The record followed here is patent publication US20240166652A1, “MODULATORS OF THE INTEGRATED STRESS PATHWAY” (Calico Life Sciences LLC, priority 2017, published 2024).

The experiment deals with ATF4 luciferase reporter in HEK293T cells. Put plainly: ATF4-Luc assay (ATF4 luciferase reporter, tunicamycin-treated HEK293T cells). Type of experiment: cell-based, human. As to conditions: Homo sapiens, HEK-293T; HEK293T cells carrying the ATF4 luciferase reporter, 1 μg/mL tunicamycin, 7 hours. (A reporter such as luciferase makes a cellular process visible.)

For `O=C(COCc1ccc(F)cc1)NC12CC(NC(=O)COc3ccc(Cl)c(F)c3)(C1)C2` [Compound 142, 2-(4-chloro-3-fluorophenoxy)-N-(3-{2-[(4-fluorophenyl)methoxy]acetamido}-bicyclo[1.1.1]pentan-1-yl)acetamide], the EC50 (in general, the concentration at which the effect is half-maximal) is 10 to 50 nM.
Consider `O=C(COc1ccc(Cl)c(Cl)c1)NC12CCC(NC(=O)COc3ccc(Cl)c(F)c3)(CC1)[C@@H](O)C2` [Compound 438, 2-(4-chloro-3-fluorophenoxy)-N-{(2S)-4-[2-(3,4-dichlorophenoxy)acetamido]-2-hydroxybicyclo[2.2.2]octan-1-yl}acetamide], for which the EC50 is below 10 nM.
The value for `COc1cc(Cl)ccc1OCC(=O)NC12CCC(NC(=O)COc3ccc(Cl)c(F)c3)(CC1)[C@@H](O)C2` [Compound 793, 2-(4-chloro-3-fluorophenoxy)-N-{(2S)-4-[2-(4-chloro-2-methoxyphenoxy)acetamido]-2-hydroxybicyclo[2.2.2]octan-1-yl}acetamide] was below 10 nM; that for `CCOC(=O)/C=C1\CC2(NC(=O)COc3ccc(Cl)c(F)c3)CCC1(NC(=O)COc1ccc(Cl)c(F)c1)CC2` [Compound 672, ethyl (2E)-{1,4-bis[2-(4-chloro-3-fluorophenoxy)acetamido]bicyclo[2.2.2]octan-2-ylidene}acetate] was 10 to 50 nM; that for `O=C(COc1ccc(Cl)c(F)c1)NC12CC(NC(=O)Cc3cccnc3)(C1)C2` [Compound 458, 2-(4-chloro-3-fluorophenoxy)-N-{3-[2-(pyridin-3-yl)acetamido]bicyclo[1.1.1]pentan-1-yl}acetamide] was above 2000 nM.
Next, `O=C(COc1ccc2c(c1)OC(F)(F)O2)NC12CCC(NC(=O)COc3ccc4c(c3)OC(F)(F)O4)(CC1)C2` [Compound 531, N,N′-(bicyclo[2.2.1]heptane-1,4-diyl)bis{2-[(2,2-difluoro-2H-1,3-benzodioxol-5-yl)oxy]acetamide}]: 250 to 500 nM; `COc1ncc(OCC(=O)NC23CCC(NC(=O)COc4ccc(Cl)c(F)c4)(CC2)C(=O)N3)cn1` [Compound 690, 2-(4-chloro-3-fluorophenoxy)-N-(1-{2-[(2-methoxypyrimidin-5-yl)oxy]acetamido}-3-oxo-2-azabicyclo[2.2.2]octan-4-yl)acetamide]: 250 to 500 nM.
As for `O=C(COc1cccnc1)NC12CC(NC(=O)COc3ccc(Cl)c(Cl)c3)(C1)C2` [Compound 405, 2-(3,4-dichlorophenoxy)-N-(3-{2-[(pyridin-3-yl)oxy]acetamido}bicyclo[1.1.1]pentan-1-yl)acetamide], the EC50 lay within 50 to 250 nM.
The value for `O=C(COc1ccc(Cl)c(F)c1)NC12CCC(NC(=O)NCc3ccc(Cl)c(F)c3)(CC1)C[C@@H]2O` [Compound 576, 2-(4-chloro-3-fluorophenoxy)-N-[(2S)-4-({[(4-chloro-3-fluorophenyl)methyl]carbamoyl}amino)-2-hydroxybicyclo[2.2.2]octan-1-yl]acetamide] was 10 to 50 nM; that for `O=C(COc1ccc(OC(F)(F)F)cc1)NC12CCC(NC(=O)COc3ccc(F)c(F)c3)(CC1)[C@@H](O)C2` [Compound 784, 2-(3,4-difluorophenoxy)-N-[(2S)-2-hydroxy-4-{2-[4-(trifluoromethoxy)phenoxy]acetamido}bicyclo[2.2.2]octan-1-yl]acetamide] was below 10 nM; that for `O=C(COc1ccc(F)cc1)NC12CC(NC(=O)COc3ccc(Cl)c(F)c3)(C1)C2` [Compound 408, 2-(4-chloro-3-fluorophenoxy)-N-{3-[2-(4-fluorophenoxy)acetamido]bicyclo[1.1.1]pentan-1-yl}acetamide] was below 10 nM.
The value for `O=C(COc1ccc(Cl)cc1)NC12CCC(NC(=O)COc3ccc(Cl)cc3)(C1)C2` [Compound 176, N,N′-(bicyclo[2.1.1]hexane-1,4-diyl)bis[2-(4-chlorophenoxy)acetamide]] was 10 to 50 nM; that for `O=C(COc1ccc(F)c(F)c1)NC12CCC(NC(=O)COc3ccc(F)cc3)(CC1)C(O)C2` (stereo not drawn) [Compound 364, 2-(3,4-difluorophenoxy)-N-{4-[2-(4-fluorophenoxy)acetamido]-3-hydroxybicyclo[2.2.2]octan-1-yl}acetamide] was below 10 nM; that for `O=C(COc1ccc(Cl)c(F)c1)NC12CCC(NC(=O)COc3ccc(OC(F)(F)F)cc3)(CC1)[C@@H](O)C2` [Compound 505, 2-(4-chloro-3-fluorophenoxy)-N-[(3S)-3-hydroxy-4-{2-[4-(trifluoromethoxy)phenoxy]acetamido}bicyclo[2.2.2]octan-1-yl] acetamide] was below 10 nM.
Next, `Cc1noc(C)c1-c1cc(OCC(=O)NC23CC(NC(=O)COc4ccc(Cl)c(F)c4)(C2)C3)ccc1Cl` [Compound 261, 2-[4-chloro-3-(3,5-dimethyl-1,2-oxazol-4-yl)phenoxy]-N-{3-[2-(4-chloro-3-fluorophenoxy)acetamido]bicyclo[1.1.1]pentan-1-yl}acetamide]: 10 to 50 nM; `O=C1COc2c(cc(Cl)cc2OCC(=O)NC23CCC(NC(=O)COc4ccc(Cl)c(F)c4)(CC2)[C@@H](O)C3)N1` [Compound 754, 2-(4-chloro-3-fluorophenoxy)-N-[(2S)-4-{2-[(6-chloro-3-oxo-3,4-dihydro-2H-1,4-benzoxazin-8-yl)oxy]acetamido}-2-hydroxybicyclo[2.2.2]octan-1-yl]acetamide]: above 2000 nM.
For the molecule `O=C(COc1ccc(Cl)c(F)c1)NC12CC(NC(=O)Cc3cccc(OC(F)(F)F)c3)(C1)C2` [Compound 361, 2-(4-chloro-3-fluorophenoxy)-N-(3-{2-[3-(trifluoromethoxy)phenyl]acetamido}bicyclo[1.1.1]pentan-1-yl)acetamide], the EC50 is above 2000 nM.
Next, `CCOc1ccc(OCC(=O)NC23CCC(NC(=O)COc4ccc(Cl)c(F)c4)(CC2)[C@@H](O)C3)cc1` [Compound 464, 2-(4-chloro-3-fluorophenoxy)-N-{(2S)-4-[2-(4-ethoxyphenoxy)acetamido]-2-hydroxybicyclo[2.2.2]octan-1-yl}acetamide]: 10 to 50 nM; `O=C(COc1ccc(Cl)c(F)c1)NC12CC(NS(=O)(=O)Cc3ccc(C(F)(F)F)cc3)(C1)C2` [Compound 426, 2-(4-chloro-3-fluorophenoxy)-N-[3-({[4-(trifluoromethyl)phenyl]methanesulfonyl}amino)bicyclo[1.1.1]pentan-1-yl]acetamide]: 50 to 250 nM; `O=C(COc1ccc(Cl)c(CO)c1)NC12CCC(NC(=O)COc3ccc(Cl)c(CO)c3)(CC1)[C@@H](O)C2` [Compound 592, N,N′-[(2S)-2-hydroxybicyclo[2.2.2]octane-1,4-diyl]bis{2-[4-chloro-3-(hydroxymethyl)phenoxy]acetamide}]: 500 to 2000 nM.
The value for `CC(C)(Oc1ccc(Cl)cc1)C(=O)NC12CCC(NC(=O)COc3ccc(Cl)c(F)c3)(CC1)C[C@@H]2O` [Compound 453, N-{(2S)-4-[2-(4-chloro-3-fluorophenoxy)acetamido]-2-hydroxybicyclo[2.2.2]octan-1-yl}-2-(4-chlorophenoxy)-2-methylpropanamide] was 10 to 50 nM; that for `COCc1cccc(OCC(=O)NC23CCC(NC(=O)COc4ccc(Cl)c(F)c4)(CC2)[C@@H](O)C3)c1` [Compound 777, 2-(4-chloro-3-fluorophenoxy)-N-[(2S)-2-hydroxy-4-{2-[3-(methoxymethyl)phenoxy]acetamido}bicyclo[2.2.2]octan-1-yl]acetamide] was 10 to 50 nM; that for `Cc1cc(OCC(=O)NC23CCC(NC(=O)COc4ccc(Cl)c(F)c4)(CC2)[C@@H](O)C3)no1` [Compound 665, 2-(4-chloro-3-fluorophenoxy)-N-[(2S)-2-hydroxy-4-{2-[(5-methyl-1,2-oxazol-3-yl)oxy]acetamido}bicyclo[2.2.2]octan-1-yl]acetamide] was 10 to 50 nM.
Next, `O=C(COc1ccc(F)c(F)c1)NC12CCC(NC(=O)COc3ccc(F)c(F)c3)(CC1)C(O)C2` (stereo not drawn) [Compound 363, N,N′-(2-hydroxybicyclo[2.2.2]octane-1,4-diyl)bis[2-(3,4-difluorophenoxy)acetamide]]: below 10 nM; `CS(=O)(=O)c1ccc(OCC(=O)NC23CC(NC(=O)COc4ccc(Cl)c(F)c4)(C2)C3)cn1` [Compound 257, 2-(4-chloro-3-fluorophenoxy)-N-[3-(2-{[6-(methanesulfonyl)pyridin-3-yl]oxy}acetamido)bicyclo[1.1.1]pentan-1-yl]acetamide]: 250 to 500 nM.
For the molecule `COc1ccc(OCC(=O)NC23CCC(NC(=O)COc4ccc(Cl)c(F)c4)(CC2)[C@@H](O)C3)nc1` [Compound 667, 2-(4-chloro-3-fluorophenoxy)-N-[(2S)-2-hydroxy-4-{2-[(5-methoxypyridin-2-yl)oxy]acetamido}bicyclo[2.2.2]octan-1-yl]acetamide], the EC50 was above 2000 nM.
Next, `O=C(COCCc1cccc(F)c1)NC12CC(NC(=O)COc3ccc(Cl)c(F)c3)(C1)C2` [Compound 132, 2-(4-chloro-3-fluorophenoxy)-N-(3-{2-[2-(3-fluorophenyl)ethoxy]acetamido}-bicyclo[1.1.1]pentan-1-yl)acetamide]: 50 to 250 nM; `O=C(COc1ccc(Cl)c(F)c1)NC12CC(NC(=O)COc3cnc(Cl)c(C(=O)O)c3)(C1)C2` [Compound 231, 2-chloro-5-[2-({3-[2-(4-chloro-3-fluorophenoxy)acetamido]-bicyclo[1.1.1]pentan-1-yl}amino)-2-oxoethoxy]pyridine-3-carboxylic Acid]: above 2000 nM; `O=C(COc1ccc(Cl)c(F)c1)NC12CC(NC(=O)COc3ccc(Cl)c(Cl)c3)(C1)C2` [Compound 121, 2-(4-chloro-3-fluorophenoxy)-N-{3-[2-(3,4-dichlorophenoxy)acetamido]-bicyclo[1.1.1]pentan-1-yl}acetamide]: below 10 nM.
The value for `CC(C)c1cc(OCC(=O)NC23CCC(NC(=O)COc4ccc(Cl)c(F)c4)(CC2)[C@@H](O)C3)cc(C(C)C)c1` [Compound 478, 2-(4-chloro-3-fluorophenoxy)-N-[(2S)-4-{2-[3,5-di(propan-2-yl)phenoxy]acetamido}-2-hydroxybicyclo[2.2.2]octan-1-yl]acetamide] was above 2000 nM.
